Reference: patent US20160129155A1, “MUSCULOSKELETAL TISSUE FABRICATION” (University of Pittsburgh - Of the Commonwealth System of …, priority 2014, published 2016)

Key:
hASCs [1] = assay type: cell-based; details: 28 days
Procedure: P3 hASCs were pelleted by centrifugation and the supernatant was completely removed. The polymer solution prepared above was used to re-suspend hASCs at 4×10^6cells/ml, and then the cell-polymer solution was immediately poured into the basement plate of the PSL device for printing with different 3D models as the template.
(§1) The fabricated constructs were detached from the platform and washed 3 times to remove uncured polymer solution. The constructs were cultured in control medium (CM, DMEM with 1% L-alanyl-L-glutamine, 55 μM sodium pyruvate, 1× antibiotic-antimycotic, and 1% Insulin-Transferrin-Selenium (ITS)) or chondrogenic medium (CGM, CM supplemented with 10 ng/ml transforming growth factor-β3 (TGF-β3), 100 nM dexamethasone, 50 μM L-ascorbic acid 2-phosphate, and 23 μM L-proline) up to 28 days, which were designated as Control or TGF-β3 group, respectively.
At various time points post-fabrication, cell viability was assessed with the Live/Dead Viability/Cytotoxicity kit as examined by epifluorescence microscopy. The percentage of live cells was calculated as the number of green-staining cells divided by the total number of cells (green & red staining cells).

hASCs [2] = experiment: Chondrogenesis of hASCs in VL-PSL constructs (RT-PCR, hydroxyproline, histology, IHC); assay type: cell-based, human
Procedure: as §1
Total RNA of the cells within the constructs was isolated using TRIZOL reagent and purified. Reverse transcription reactions were performed. Real-time PCR was performed with a thermocycler. All sample values were normalized to 18S rRNA using the 2^−ΔΔCt method.
Total collagen content deposited within the constructs was determined by measuring hydroxylproline levels. The constructs (5 mm diameter and 2 mm thickness) were homogenized in water by grinding and hydrolyzed using the same volume of 12N HCl at 120° C. for 3 hours. Hydroxyproline content in constructs was quantitated using a Hydroxyproline Colorimetric Assay Kit.
After 28 days culture, constructs were removed from the incubator, washed twice, and fixed in buffered paraformaldehyde (4%) for 1 day at room temperature. After washed with PBS for 3 times, they were then cryosectioned using a cryostat at 8 μm thickness. For assessment of glycosaminoglycan deposition, the slides were stained with either Alcian Blue or Safranin-O/Fast Green following standard protocols.
Enzymatic antigen retrieval was performed using chondroitinase/hyaluronidase (1 mg/ml and 5 mg/ml) at 37° C. for 30 min, and was suppressed with 1% horse serum in PBS for 45 min. After blocking endogenous peroxidase (3% H2O2 in methanol for 10 min) and nonspecific binding (1% horse serum), slices were incubated with primary antibodies against collage type II overnight at 4° C. After washing, biotinylated secondary antibodies were applied for 30 min. Staining was developed by treating samples with horseradish peroxidase (HRP)-conjugated streptavidin/NovaRED™ peroxidase substrate.

[3] = test system: engineered osteochondral constructs; experiment: IL-1β treatment of engineered osteochondral constructs, real time PCR; assay type: cell-based, human; details: 10 ng/ml, 7 days
Procedure: Real time PCR. Chondral and osseous constructs were collected separately. To avoid the potential contamination, the bonded margin of each construct was cut away using a razor blade. Total RNA was extracted using Trizol (Invitrogen) following the standard protocol and purified with the RNeasy Plus mini kit (Qiagen, Hilden, Germany). SuperScript III kit (Invitrogen) was utilized with random hexamer primers to complete the reverse transcription. Real-time RT-PCR was performed using the StepOnePlus thermocycler (Applied Biosystems, Foster City, Calif.) and SYBR Green Reaction Mix (Applied Biosystems). Sox 9, Aggrecan (ACN) and collagen type II (COL2A1), RunX2, Osteocalcin (OCN), Bone sialoprotein (BSP II) expression were analyzed. Monolayers of hBMSCs cultured in GM on 2D tissue culture plastic were used as negative controls. Transcript level of 18S rRNA was used as endogenous control: […], Gene expression folder changes were calculated using the Comparative CT (ΔΔCT) method.
(§2) IL-1β treatment in engineered micro-osteochondral constructs. After 4 weeks of differentiation, engineered the osteochondral constructs were treated with IL-1β […], R&D) on the chondral or osseous sides only to investigate the cell/neo-tissue response to pro-inflammatory cytokines and possible communication through the osteochondral construct. The media used in this test were CM without TGF-β3 (chondral) and OM without BMP-2 (osseous) both supplemented with 5 ng/ml There were experimental groups: (1) CM/GM, (2) CM+IL1-1β/GM, (3) CM/GM+IL1-1β. The treatment lasted 7 days, with effluent medium collected and frozen at 1, 7 days for ELISA. After 7 days, the osteochondral constructs were bisected into the chondral and osseous halves and processed for gene expression analysis as described before. In addition to tissue specific gene expression, matrix metalloproteinase 1, 3, 13 were also analyzed.
(§3) IL1β treatment on engineered osteochondral tissue. As described above, the microtissue bioreactor presented here, with its two separate medium flow systems and biphasic construct compartments, has the capability for targeted treatment of one (or both) tissue construct(s) with soluble factors. Osseous and chondral components were separately treated with the pro-inflammatory cytokine IL-1β (10 ng/ml) for 7 days (control conditions consisted of untreated osteochondral constructs), and the responses of each of the two components were separately analyzed. Media samples were collected from chondral and osseous components streams at day 1 and 7, and, after day 7, the osteochondral constructs were separated into osseous and chondral components, and each was separately analyzed for gene expression of catabolic genes (MMP-1, MMP-3, MMP-13) and either cartilage markers (Sox9, Col2, aggrecan) (FIG. 20) or bone markers (RUNX2, osteocalcin, BSPII) (FIG. 21). Media samples from the chondral and osseous components stream collected at days 1 and 7 were analyzed via MMP-1, MMP-3, and MMP-13 ELISAs (FIG. 22).

[4] = test system: engineered osteochondral constructs; experiment: IL-1β treatment of engineered osteochondral constructs, MMP ELISA of medium; assay type: cell-based, human
Procedure: as §2
Enzyme-linked immunosorbent assay (ELISA). Media was collected separately from chondral and osseous constructs, cleared of cell debris via centrifugation (1000×g), and analyzed via IL-1β (Abcam, Cambridge, Mass.), MMP-1 (R&D), MMP-3 (Abcam, Cambridge, Mass.), and MMP-13 (Abcam) ELISAs according to the manufacturers' instructions.
as §3

[5] = day 28, TGF-β3 group versus control group
[6] = IL-1β treatment of chondral construct
[7] = IL-1β treatment of osseous component

Substance	cell viability (hASCs [1]; chondrogenic medium supplemented with TGF-β3) [%]	cell proliferation by MTS assay (hASCs [1]; chondrogenic medium with TGF-β3)	Alcian Blue and Safranin O staining (GAG) (hASCs [2]; day 28, TGF-β3 group)	IHC for collagen type II (hASCs [2]; day 28, TGF-β3 group)	hydroxyproline level (hASCs [2]; day 28, TGF-β3 group) [μg/construct]	Runx2 expression (hASCs [2]; [5])	expression of Sox 9, aggrecan and collagen II (hASCs [2]; [5])	MMPs production in the osseous construct [3, 6]	osseous construct expression of osteocalcin and BSPII [3, 6]	chondral construct expression of Sox9, Col2 and aggrecan ([3]; IL-1β treatment of chondral constructs)	chondral construct expression of MMP-1, MMP-3 and MMP-13 [3, 7]	chondral construct expression of Sox9, Col2 and aggrecan ([3]; IL-1β treatment of osseous constructs)	osseous construct MMP secretion response ([4]; IL-1β treatment of chondral component, days 1 and 7)	chondral MMP-1, MMP-3 and MMP-13 secretion [4, 7]	chondral MMP-1 response time [4, 7] [days]	chondral MMP-13 response time [4, 7] [days]
transforming growth factor-β3 [TGF-β3]	77	promoted cell proliferation	dense, strong staining	positive staining	21.16±7.15	higher in the control group	significantly higher									
interleukin-1β [IL-1β]								increases	decreases	decreases	increased substantially	decreased	quick yet increased further over time	increases	7	≤ 1
